Where a SMILES comes first, the peptide text is derived from it. Bridges are numbered along the chain shown (N, C = ends). [ ]: non-standard residue; d: D form. The star is where a group is joined. hPhe(3-Cl-4-CF3) = N[C@@H](CCc1ccc(C(F)(F)F)c(Cl)c1)C(=O)O; NPrPhe(4-CF3) = CCCN[C@@H](Cc1ccc(C(F)(F)F)cc1)C(=O)O; Pip(4,4-F2) = O=C(O)[C@@H]1CC(F)(F)CCN1; NMeGly(cPent) = CN[C@H](C(=O)O)C1CCCC1; NMeD = CN[C@@H](CC(=O)O)C(=O)O; NMeL = CN[C@@H](CC(C)C)C(=O)O; Morpholide = C1CN(*)CCO1; Ac5c = NC1(C(=O)O)CCCC1; Aze = O=C(O)[C@@H]1CCN1; Sar = CNCC(=O)O
How the values were obtained:
HRAS wild-type protein = HRAS wild-type protein (Homo sapiens, UniProt P01112); assay: Binding to HRAS by surface plasmon resonance (SPR), KD and KD ratio to KRAS
Summary of the method: (§1)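 Biotinylated GDP-bound RAS was captured at about 100–300 RU. Running buffer: HBS pH 7.4, 10 mM MgCl2, 10 µM GDP, 1 mM DTT, 0.01% Tween 20, 4% DMSO.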

[1] = molecular target: GDP-bound NRAS wild-type protein (Homo sapiens, UniProt P01111); assay: Binding to NRAS by surface plasmon resonance (SPR), KD and KD ratio to KRAS
Summary of the method: as §1

[2] = tested on: human lung cancer strain NCI-H441; type: cell-based
Summary of the method: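 Step one: dispense the test compound in serial DMSO dilutions. Step three: add the reagent and measure […].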

[3] = ratio of KD for HRAS wild-type protein to KD for KRAS
[4] = ratio of KD for GDP-bound NRAS wild-type protein to KD for KRAS
[5] = ratio of KD value for HRAS wild-type protein to KD value for KRAS (SPR)
[6] = ratio of KD value for GDP-bound NRAS wild-type protein to KD value for KRAS (SPR)
[7] = ratio of the KD value with respect to HRAS wild-type protein to the KD value with respect to KRAS
[8] = ratio of the KD value with respect to GDP-bound NRAS wild-type protein to the KD value with respect to KRAS

Sequence of HRAS wild-type protein (P01112 whole entry): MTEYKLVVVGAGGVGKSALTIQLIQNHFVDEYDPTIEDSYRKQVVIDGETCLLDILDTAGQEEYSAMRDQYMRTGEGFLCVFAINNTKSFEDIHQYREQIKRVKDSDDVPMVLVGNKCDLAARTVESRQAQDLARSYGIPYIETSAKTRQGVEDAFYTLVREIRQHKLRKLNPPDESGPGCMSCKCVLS
Sequence of GDP-bound NRAS wild-type protein (P01111 whole entry): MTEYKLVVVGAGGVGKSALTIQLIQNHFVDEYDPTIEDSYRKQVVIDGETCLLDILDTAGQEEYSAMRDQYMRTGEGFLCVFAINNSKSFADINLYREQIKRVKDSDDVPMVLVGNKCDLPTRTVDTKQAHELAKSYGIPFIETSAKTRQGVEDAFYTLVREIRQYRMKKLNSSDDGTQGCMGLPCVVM

| Structure (SMILES) | HRAS /KRAS (HRAS wild-type protein; [3]) | NRAS /KRAS [1, 4] | IC50 [2] [nM] | HRAS /KRAS (HRAS wild-type protein; [5]) | NRAS /KRAS [1, 6] | HRAS /KRAS (HRAS wild-type protein; [7]) | NRAS /KRAS [1, 8] |
| --- | --- | --- | --- | --- | --- | --- | --- |
| CCO[C@@H]1C[C@H]2C(=O)NC3(CCC3)C(=O)N(C)[C@@H](C3CCCC3)C(=O)N(C)[C@H](C(=O)N(C)C)CC(=O)N(C)[C@@H](CC3CCCC3)C(=O)N[C@@H]([C@@H](C)CC)C(=O)N(C)CC(=O)N(C)[C@H]3C/C=C\CCN(C3=O)[C@@H](Cc3ccc(C)cc3)C(=O)N(C)CC(=O)N[C@@H](CCc3cc(C)c(C(F)F)c(Cl)c3)C(=O)N2C1 [PP2677] | A (a compound having 10 or more and less than 20 is denoted as A) | A (a compound having 10 or more and less than 20 is denoted as A) | 70.6 |  |  |  |  |
| CC[C@H](C)[C@@H]1NC(=O)[C@@H]2CCC/C=C/c3ccc(cc3)C[C@@H](C(=O)N(C)CC(=O)N[C@@H](CCc3ccc(Cl)c(Cl)c3)C(=O)N3C[C@H](OC4CCC4)C[C@H]3C(=O)NC3(CC(C)(C)C3)C(=O)N(C)[C@@H](C3CCCC3)C(=O)N(C)[C@H](C(=O)N3CCCC3)CC(=O)N2C)N2CC/C=C\C[C@@H](C2=O)N(C)C(=O)CN(C)C1=O [PP3053] | A (a compound having 10 or more and less than 20 is denoted as A) | A (a compound having 10 or more and less than 20 is denoted as A) | 27 |  |  |  |  |
| CCC[C@H]1C(=O)N[C@@H]([C@@H](C)CC)C(=O)N(C)CC(=O)N(C)[C@H]2C/C=C\CCN(C2=O)[C@@H](Cc2ccc(C(F)(F)F)cc2)C(=O)N(C)CC(=O)N[C@@H](CCc2cc(F)c(C(F)(F)F)c(F)c2)C(=O)N2C[C@H](F)C[C@H]2C(=O)NC2(CC(C)(C)C2)C(=O)N(C)[C@@H](C2CCCC2)C(=O)N(C)[C@H](C(=O)N(C)C)CC(=O)N1C [PP1689] |  |  | 1.4 | B (a compound having 3 or more and less than 10 is denoted as B) | A (a compound having 10 or more and less than 20 is denoted as A) |  |  |
| CCCN1C(=O)CN(C)C(=O)[C@@H]2CCN2C(=O)[C@H]([C@@H](C)CC)NC(=O)[C@H](CC(C)C)N(C)C(=O)C[C@@H](C(=O)N2CCOCC2)N(C)C(=O)[C@H](C2CCCC2)N(C)C(=O)C2(CCCC2)NC(=O)[C@@H]2CC(F)(F)CCN2C(=O)[C@H](CCc2ccc(C(F)(F)F)c(Cl)c2)NC(=O)CN(C)C(=O)[C@@H]1Cc1ccc(C(F)(F)F)cc1 [PP0312] ([NMeL]I[Aze][Sar][NPrPhe(4-CF3)][Sar][hPhe(3-Cl-4-CF3)][Pip(4,4-F2)][Ac5c][NMeGly(cPent)][NMeD]-Morpholide; lactam N-11) | B (a compound having 3 or more and less than 10 is denoted as B) | B (a compound having 3 or more and less than 10 is denoted as B) | 82.4 |  |  |  |  |
| CC[C@H](C)[C@@H]1NC(=O)[C@H](CC(C)C)N(C)C(=O)C[C@@H](C(=O)N2CCOCC2)N(C)C(=O)[C@H](C2CCCC2)N(C)C(=O)C2(CCCC2)NC(=O)[C@@H]2CCCN2C(=O)[C@H](CCc2ccc(C(F)(F)F)c(Cl)c2)NC(=O)CN(C)C(=O)[C@H](Cc2ccc(C(F)(F)F)cc2)N2CCCC[C@@H](C2=O)N(C)C(=O)CN(C)C1=O [PP0318] | B (a compound having 3 or more and less than 10 is denoted as B) | B (a compound having 3 or more and less than 10 is denoted as B) | 2.3 |  |  |  |  |
| CCO[C@@H]1C[C@H]2C(=O)NC3(CC(C)(C)C3)C(=O)N(C)[C@@H](C(CC)CC)C(=O)N(C)C(C(C)C)CC(=O)N(C)[C@@H](CC3CC3)C(=O)N[C@@H]([C@@H](C)CC)C(=O)N(C)CC(=O)N(C)[C@H]3C/C=C\CCN(C3=O)[C@@H](Cc3ccc(C(F)(F)F)cc3)C(=O)N(C)CC(=O)N[C@@H](CCc3cc(F)c(C(F)(F)F)c(F)c3)C(=O)N2C1 (stereo partly drawn) [PP1593] |  |  | 144 | A (a compound having 10 or more and less than 20 is denoted as A) | A (a compound having 10 or more and less than 20 is denoted as A) |  |  |
| CCC[C@H]1C(=O)N[C@@H]([C@@H](C)CC)C(=O)N(C2CC2)CC(=O)N(C)[C@H]2C/C=C\CCN(C2=O)[C@@H](Cc2ccc(C)cc2)C(=O)N(C)CC(=O)N[C@@H](CCc2cc(F)c(C(F)(F)F)c(F)c2)C(=O)N2C[C@H](OCC)C[C@H]2C(=O)NC2(CC(C)(C)C2)C(=O)N(C)[C@@H](C2CCCC2)C(=O)N(C)[C@H](C(=O)N(C)C)CC(=O)N1C [PP2093] |  |  | 7.4 |  |  | A (a compound having 10 or more and less than 20 is denoted as A) | A (a compound having 10 or more and less than 20 is denoted as A) |
| CCC[C@H]1C(=O)N[C@@H]([C@@H](C)CC)C(=O)N(C)CC(=O)N(C)[C@H]2C/C=C\CCN(C2=O)[C@@H](Cc2ccc(C(F)(F)F)cc2)C(=O)N(C)CC(=O)N[C@@H](CCc2ccc3c(C)cn(C)c3c2)C(=O)N2C[C@H](OCC)C[C@H]2C(=O)NC2(CC(C)(C)C2)C(=O)N(C)[C@@H](C(CC)CC)C(=O)N(C)[C@H](C(=O)N(C)C)CC(=O)N1C [PP2908] | A (a compound having 10 or more and less than 20 is denoted as A) | AA (a compound having 20 or more is denoted as AA) | 20.2 |  |  |  |  |
| CCO[C@@H]1C[C@H]2C(=O)NC3(CCC3)C(=O)N(C)[C@@H](C3CCCC3)C(=O)N(C)[C@H](C(=O)N3CCOCC3)CC(=O)N(C)[C@@H](CC)C(=O)N[C@@H]([C@@H](C)CC)C(=O)N(C)CC(=O)N(C)[C@H]3C/C=C\CCN(C3=O)[C@@H](Cc3ccc(C(F)(F)F)cc3)C(=O)N(C)CC(=O)N[C@@H](CCc3cc(F)c(C(F)(F)F)c(F)c3)C(=O)N2C1 [PP1092] | A (a compound having 10 or more and less than 20 is denoted as A) | A (a compound having 10 or more and less than 20 is denoted as A) | 15.8 |  |  |  |  |
| CCO[C@@H]1C[C@H]2C(=O)NC3(CC(C)(C)C3)C(=O)N(C)[C@@H](C(CC)CC)C(=O)N(C)[C@H](C(=O)N3CCCC3)CC(=O)N(C)[C@H]3CCC/C=C/c4ccc(cc4)C[C@@H](C(=O)N(C)CC(=O)N[C@@H](CCc4cc(F)c(C(F)(F)F)c(F)c4)C(=O)N2C1)N1CC/C=C\C[C@@H](C1=O)N(C)C(=O)CN(C)C(=O)[C@H]([C@@H](C)CC)NC3=O [PP2576] | A (a compound having 10 or more and less than 20 is denoted as A) | A (a compound having 10 or more and less than 20 is denoted as A) | 5.7 |  |  |  |  |
| CC[C@H](C)[C@@H]1NC(=O)[C@H](CC(C)C)N(C)C(=O)C[C@@H](C(=O)N2CCOCC2)N(C)C(=O)[C@H](C2CCCC2)N(C)C(=O)C2(CCC2)NC(=O)[C@@H]2C[C@@H](OC)CN2C(=O)[C@H](CCc2cc(F)c(C(F)(F)F)c(F)c2)NC(=O)CN(C)C(=O)[C@H](Cc2ccc(C(F)(F)F)cc2)N2CCCC[C@@H](C2=O)N(C)C(=O)CN(C)C1=O [PP1003] | B (a compound having 3 or more and less than 10 is denoted as B) | C (A compound having a KD ratio of 0.1 or more and less than 3 is denoted as C) | 29.1 |  |  |  |  |
| CC[C@H](C)[C@@H]1NC(=O)[C@H](CC(C)C)N(C)C(=O)C[C@@H](C(=O)N2CCOCC2)N(C)C(=O)[C@H](C2CCCC2)N(C)C(=O)C2(CCC2)NC(=O)[C@@H]2[C@H]3C[C@H]3CN2C(=O)[C@H](CCc2cc(F)c(C(F)(F)F)c(F)c2)NC(=O)CN(C)C(=O)[C@H](Cc2ccc(C(F)(F)F)cc2)N2CCCC[C@@H](C2=O)N(C)C(=O)CN(C)C1=O [PP0810] | B (a compound having 3 or more and less than 10 is denoted as B) | B (a compound having 3 or more and less than 10 is denoted as B) | 12.8 |  |  |  |  |
| CCC[C@H]1C(=O)N[C@@H]([C@@H](C)CC)C(=O)N(C)CC(=O)N(C)[C@H]2C/C=C\CCN(C2=O)[C@@H](Cc2ccc(C)cc2)C(=O)N(C)CC(=O)N[C@@H](CCc2ccc(C(F)(F)F)c(Cl)c2)C(=O)N2C[C@H](OCC)C[C@H]2C(=O)NC2(CC(C)(C)C2)C(=O)N(C)[C@@H](C2CCCC2)C(=O)N(C)[C@H](C(=O)N(C)C)CC(=O)N1C [PP1896] |  |  | 5.3 | B (a compound having 3 or more and less than 10 is denoted as B) | A (a compound having 10 or more and less than 20 is denoted as A) |  |  |
| CCO[C@@H]1C[C@H]2C(=O)NC3(CC(C)(C)C3)C(=O)N(C)[C@@H](C3CCCC3)C(=O)N(C)[C@H](C(=O)N(C)CC)CC(=O)N(C)[C@@H](C3CC3)C(=O)N[C@@H]([C@@H](C)CC)C(=O)N(C)CC(=O)N(C)[C@H]3C/C=C\CCN(C3=O)[C@@H](Cc3ccc(C(F)(F)F)cc3)C(=O)N(C)CC(=O)N[C@@H](CCc3cc(F)c(C(F)(F)F)c(F)c3)C(=O)N2C1 [PP2036] |  |  | 9.1 |  |  | A (a compound having 10 or more and less than 20 is denoted as A) | A (a compound having 10 or more and less than 20 is denoted as A) |
| CC[C@H](C)[C@@H]1NC(=O)[C@H](C2CC2)N(C)C(=O)C[C@@H](C(=O)N(C)CC)N(C)C(=O)[C@H](C2CCCC2)N(C)C(=O)C2(CCC2)NC(=O)[C@@H]2C[C@H](C)CN2C(=O)[C@H](CCc2ccc(C(F)(F)F)c(OC)c2)NC(=O)CN(C)C(=O)[C@H](Cc2ccc(C(F)(F)F)cc2)N2CC/C=C\C[C@@H](C2=O)N(C)C(=O)CN(C)C1=O [PP2069] |  |  | 27.4 |  |  | A (a compound having 10 or more and less than 20 is denoted as A) | AA (a compound having 20 or more is denoted as AA) |

— patent EP4603105A1, “PHARMACEUTICAL COMPOSITION CONTAINING CYCLIC COMPOUND HAVING SELECTIVE KRAS INHIBITORY EFFECT AGAINST HRAS AND NRAS” (CHUGAI SEIYAKU KABUSHIKI KAISHA, priority 2022, dated 2024)
